Data reported in US9895346B2, “Applications of substituent benzyloxy group containing ether compounds for preparing antitumor drugs” (Sinochem Corporation, priority 2013, dated 2018).

How the values were obtained:
[1] = tested on: bladder cancer cell line J82; test: In vitro cell inhibition assay (crystal violet), bladder cancer J82; format: cell-based, human
Summary of the method: (§1)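 1000-3000 cells per well grown 24 h at 37 °C, then exposed to compound for one week (vehicle ≤0.5% of volume). Cells formalin-fixed and stained with 0.1% crystal violet. Inhibition rate = remaining cells in treated wells / remaining cells in untreated control × 100%.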

[2] = tested on: bladder cancer cell line T24; test: In vitro cell inhibition assay (crystal violet), bladder cancer T24; format: cell-based, human
Source text: (§2) In vitro Cell inhibition assay is as follows:
(§3) The human cancer cell lines used for this assay were bladder cancer J82, T24, prostate cancer LNCap, PC-3, lung cancer A549, H157, H460, H520, colon cancer HCT8, HCT116, RkO, and leukemia HL-60, etc.
(§4) In vitro cell culture technology was selected for the determination of inhibition rate bladder cancer cell lines J82 and T24, prostate cancer cell lines LNCap and PC-3, lung cancer cell lines A549, H157, H460 and H520. 1000 to 3000 cells were inoculated to 24-well plate, followed by addition of 1 mL culture medium well known to researchers in this field to each well, the cells were cultured in 5% incubator for 24 hours at 37° C., then the different concentration compounds and controls were added to each well. It should be noted that the added volume is not more than 0.5% of total volume. After completion of addition, the cells continued being cultured in incubator for one week, the culture medium was removed and washed by cold PBS of 1 mL once, and then fixed for 10 minutes at room temperature with 1% formalin, followed by wash with PBS of 1 mL. After fixation, stain was carried out with 0.1% crystal violet for 30 minutes. 0.1% crystal violet was recycled. The stained cells were washed gently with deionized water, dried at room temperature and kepted. The inhibition rate was calculated according to the foiling equation. The controls are Selumetinib (AZD6244), Gefitinib, Cisplatin. Inhibition rate=number of left cells each treatment/number of left cells of untreated control×100%

[3] = tested on: prostate cancer cell line LNCap; test: In vitro cell inhibition assay (crystal violet), prostate cancer LNCap; format: cell-based, human
Source text: as §2, §3, §4

[4] = tested on: prostate cancer cell line PC-3; test: In vitro cell inhibition assay (crystal violet), prostate cancer PC-3; format: cell-based, human
Source text: as §2, §3, §4

[5] = tested on: lung cancer cell line A549; test: In vitro cell inhibition assay (crystal violet), lung cancer A549; format: cell-based, human
Summary of the method: as §1

[6] = tested on: lung cancer cell line H157; test: In vitro cell inhibition assay (crystal violet), lung cancer H157; format: cell-based, human
Source text: as §2, §3, §4

[7] = tested on: lung cancer cell line H460; test: In vitro cell inhibition assay (crystal violet), lung cancer H460; format: cell-based, human
Summary of the method: as §1

[8] = tested on: lung cancer cell line H520; test: In vitro cell inhibition assay (crystal violet), lung cancer H520; format: cell-based, human
Summary of the method: as §1

[9] = tested on: colon cancer HCT8; test: In vitro cell inhibition assay, colon cancer HCT8; format: cell-based, human
Source text: as §2, §3

[10] = tested on: colon cancer HCT116; test: In vitro cell inhibition assay, colon cancer HCT116; format: cell-based, human
Source text: as §2, §3

[11] = tested on: colon cancer RkO; test: In vitro cell inhibition assay, colon cancer RkO; format: cell-based, human
Source text: as §2, §3

[12] = tested on: human leukemia HL-60 cells; test: Proliferation inhibition of human leukemia HL-60 cells, MTT method; format: cell-based; details: 48 h incubation, OPTI-MEM medium
Summary of the method: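 Cells at 5×10^4 cells/mL cultured overnight at 37 °C, 5% CO2, then exposed to compounds at different concentrations for 48 h. MTT added for 4 h, formazan dissolved in DMSO and absorbance read at 570 nm to give inhibition rate.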

CCCCc1c(C)c2ccc(OCc3ccccc3/C(=C\OC)C(=O)OC)cc2oc1=O [Compound 28-72, coumoxystrobin]
Inhibition rate on human cancer cells ([1]; J82, 0.25 μM): 70%
Inhibition rate on human cancer cells ([1]; J82, 0.5 μM): 90%
Inhibition rate on human cancer cells ([1]; J82, 1.0 μM): 95%
Inhibition rate on human cancer cells ([1]; J82, 2.5 μM): 100%
Inhibition rate on human cancer cells ([1]; J82, 5.0 μM): 100%
Inhibition rate on human cancer cells ([2]; T24, 0.25 μM): 100%
Inhibition rate on human cancer cells ([2]; T24, 0.5 μM): 100%
Inhibition rate on human cancer cells ([2]; T24, 1.0 μM): 100%
Inhibition rate on human cancer cells ([2]; T24, 2.5 μM): 100%
Inhibition rate on human cancer cells ([2]; T24, 5.0 μM): 100%
Inhibition rate on human cancer cells ([3]; 0.25 μM): 100%
Inhibition rate on human cancer cells ([3]; 0.5 μM): 100%
Inhibition rate on human cancer cells ([3]; 1.0 μM): 100%
Inhibition rate on human cancer cells ([3]; 2.5 μM): 100%
Inhibition rate on human cancer cells ([3]; 5.0 μM): 100%
Inhibition rate on human cancer cells ([4]; PC-3, 0.25 μM): 100%
Inhibition rate on human cancer cells ([4]; PC-3, 0.5 μM): 100%
Inhibition rate on human cancer cells ([4]; PC-3, 1.0 μM): 100%
Inhibition rate on human cancer cells ([4]; PC-3, 2.5 μM): 100%
Inhibition rate on human cancer cells ([4]; PC-3, 5.0 μM): 100%
Inhibition rate on human cancer cells ([5]; A549, 0.5 μM): 90%
Inhibition rate on human cancer cells ([5]; A549, 1.0 μM): 95%
Inhibition rate on human cancer cells ([5]; A549, 2.5 μM): 100%
Inhibition rate on human cancer cells ([5]; A549, 5.0 μM): 100%
Inhibition rate on human cancer cells ([6]; H157, 0.25 μM): >90%
Inhibition rate on human cancer cells ([6]; H157, 0.5 μM): 100%
Inhibition rate on human cancer cells ([6]; H157, 1.0 μM): 100%
Inhibition rate on human cancer cells ([6]; H157, 2.5 μM): 100%
Inhibition rate on human cancer cells ([6]; H157, 5.0 μM): 100%
Inhibition rate on human cancer cells ([7]; H460, 0.25 μM): 95%
Inhibition rate on human cancer cells ([7]; H460, 0.5 μM): 100%
Inhibition rate on human cancer cells ([7]; H460, 1.0 μM): 100%
Inhibition rate on human cancer cells ([7]; H460, 2.5 μM): 100%
Inhibition rate on human cancer cells ([7]; H460, 5.0 μM): 100%
Inhibition rate on human cancer cells ([8]; H520, 0.25 μM): >90%
Inhibition rate on human cancer cells ([8]; H520, 0.5 μM): 100%
Inhibition rate on human cancer cells ([8]; H520, 1.0 μM): 100%
Inhibition rate on human cancer cells ([8]; H520, 2.5 μM): 100%
Inhibition rate on human cancer cells ([8]; H520, 5.0 μM): 100%
Inhibition rate on human cancer cells ([9]; HCT 8, 0.5 μM): 95%
Inhibition rate on human cancer cells ([9]; HCT 8, 1.0 μM): 100%
Inhibition rate on human cancer cells ([9]; HCT 8, 2.5 μM): 100%
Inhibition rate on human cancer cells ([9]; HCT 8, 5.0 μM): 100%
Inhibition rate on human cancer cells ([10]; HCT 116, 0.25 μM): 80%
Inhibition rate on human cancer cells ([10]; HCT 116, 0.5 μM): 95%
Inhibition rate on human cancer cells ([10]; HCT 116, 1.0 μM): 99%
Inhibition rate on human cancer cells ([10]; HCT 116, 2.5 μM): 100%
Inhibition rate on human cancer cells ([10]; HCT 116, 5.0 μM): 100%
Inhibition rate on human cancer cells ([11]; 0.25 μM): 95%
Inhibition rate on human cancer cells ([11]; 0.5 μM): 100%
Inhibition rate on human cancer cells ([11]; 1.0 μM): 100%
Inhibition rate on human cancer cells ([11]; 2.5 μM): 100%
Inhibition rate on human cancer cells ([11]; 5.0 μM): 100%
Proliferation inhibitory effect on human leukemia HL-60 cell (%) ([12]; concentration 1 μM): 45.3%
Proliferation inhibitory effect on human leukemia HL-60 cell (%) ([12]; concentration 10 μM): 47.9%
Proliferation inhibitory effect on human leukemia HL-60 cell (%) ([12]; concentration 100 μM): 54.4%
